According to paper PMC10258794, “To Fold or Not to Fold: Diastereomeric Optimization of an α-Helical Antimicrobial Peptide” (Journal of Medicinal Chemistry, 2023):
≈ marks a conversion by molar mass, not a printed value. Like-named read-outs stand apart in the source and are kept apart here. Non-standard residues stand in square brackets, D forms with d. Residues, ends and D or L forms follow the SMILES beside them.

Legend:
human red blood cells = experiment: Hemolysis assay (MHC)
Protocol: To determine the MHC stock solutions, 8 mg/mL peptide in PBS (pH 7.4) was prepared, and 50 μL was diluted serially by l/2 in 50 μL of PBS (pH 7.4) in a 96-well plate (Costar or Nunc, polystyrene, untreated). […] Plasma was discarded, and the pellet was re-suspended in a 15 mL Falcon tube in 5 mL of PBS. The washing was repeated three times, and the remaining pellet was re-suspended in 10 mL of PBS. The hRBC suspension (50 μL) was added to each well, and the plate was incubated at room temperature for 4 h. MHC end points were determined by visual determination of the wells after the incubation period. Controls on each plate included a blank medium control (50 μL PBS + 50 μL of hRBCs suspension) and a hemolytic activity control (mQ-deionized water 50 μL + 50 μL hRBC suspension).

A. baumannii ATCC19606 = system: A. baumannii ATCC19606
Protocol: (§1) Antimicrobial activity was determined for all peptides on E. coli W3110, P. aeruginosa PAO1, A. baumannii ATCC19606, K. pneumoniae NCTC418, and methicillin-resistant S. aureus COL and for selected peptides on P. aeruginosa PA14 and the polymyxin B-resistant derivatives PA14 4.13, PA14 4.18, and PA14 2P4 as well as the clinical isolates ZEM-1A and ZEM9A, K. pneumoniae OXA-48, Enterobacter cloacae, Stenotrophomonas maltophilia, B. cenocepacia, and Staphylococus epidermis. To determine the MIC, the broth microdilution method was used.[75] A single bacterial colony was grown in LB medium overnight at 37 °C and 180 rpm shaking. The compounds were prepared as stock solutions of 2 mg/mL in sterilized milliQ deionized water, added to the first well of 96-well sterile, polypropylene round-bottom microtiter plates (TPP, untreated, Corning Incorporated, Kennebunk, USA), and diluted serially by 1/2. […] The bacterial inoculum was prepared by measuring the absorbance of the overnight culture, which was diluted to concentration of the bacteria was quantified by measuring absorbance at 600 nm and diluted to an OD600 of 0.022 in MH medium pH 7.4 (Sigma-Aldrich, Buchs, Switzerland). The sample solutions (150 μL) were mixed with 4 μL of diluted bacterial suspension with a final inoculation of about 5 × 10^5 CFU. For each test, two columns of the plate were kept for sterility control (MH medium only) and growth control (MH medium with bacterial inoculum, no compound). […] The plates were incubated at 37 °C for 16–20 h under static conditions. 15 μL of 3-(4,5-dimethylthiazol-2-yl)-2,5-diphenyltetrazolium bromide (MTT)[76] (1 mg/mL in sterilized milliQ deionized water) was added to each well, and the plates were incubated at room temperature until MTT staining was completed. The MIC was defined as the lowest concentration of the dendrimer that inhibits the visible growth of the tested bacteria (yellow) with the unaided eye.

K. pneumoniae NCTC418 = system: K. pneumoniae NCTC418
Protocol: as §1

P. aeruginosa PAO1 = system: P. aeruginosa PAO1
Protocol: as §1

S. aureus COL MRSA = system: S. aureus COL MRSA
Protocol: as §1

[1] = EYPC vesicle leakage assay; type: biochemical; conditions: 10 μg/mL of compound; 10 mM TRIS, 107 mM NaCl, pH 7.4
Protocol: 5(6)-carboxyfluorescein (CF) was purchased from Sigma. EYPC, EYPG, and a Mini-Extruder were purchased from Avanti Polar Lipids. Egg PC or Egg PG thin lipid layers were prepared by evaporating a solution of 100 mg of EYPC or EYPG in 4 mL of MeOH/CHCl3 (1:1) on a rotary evaporator at room temperature and then dried in vacuo overnight. […] Extravesicular components were removed by gel filtration (Sephadex G-50) with 10 mM TRIS, 107 mM NaCl, pH 7.4 buffer. Final conditions: ∼2.5 mM PC or PG; inside: 50 mM CF, 10 mM TRIS, 10 mM NaCl, pH 7.4 buffer; outside: 10 mM TRIS, 107 mM NaCl, pH 7.4. […] The CF efflux was monitored at λem 517 nm (λex 492 nm) as a function of time after addition of the desired volume of peptide from 2 mg/mL stock in mQ water at t = 45 s, 10 and 50 μg/mL were monitored for both EYPC and EYPG. […] Fluorescence intensities were then normalized to the maximal emission intensity using I(t) = (It – I0)/(I∞ – I0) where I0 = It at peptide addition, I∞ = It at saturation of lysis.

E. coli W3110 = system: E. coli W3110
Protocol: as §1

Enterobacter cloacae = experiment: microbe, parasite or virus in culture
Protocol: as §1

P. aeruginosa ZEM-1A = experiment: microbe, parasite or virus in culture; conditions: ZEM-1A
Protocol: as §1

[2] = MH broth pH 7.4, 16–20 h, 37 °C
[3] = supplementary CSV, ranges of Table 1 given as one number

| Molecule | EYPC vesicle leakage (%) [1] | MIC A. baumannii ATCC19606 (A. baumannii ATCC19606; [2]) | MIC A. baumannii ATCC19606 (A. baumannii ATCC19606; [3]) | MIC E. coli W3110 (E. coli W3110; [2]) | MIC K. pneumoniae NCTC418 (K. pneumoniae NCTC418; [2]) | MIC P. aeruginosa PAO1 (P. aeruginosa PAO1; [2]) | MIC P. aeruginosa PAO1 (P. aeruginosa PAO1; [3]) | MIC S. aureus COL MRSA (S. aureus COL MRSA; [2]) | MIC S. aureus COL (S. aureus COL MRSA; [3]) | also measured |
| --- | --- | --- | --- | --- | --- | --- | --- | --- | --- | --- |
| CC[C@H](C)[C@H](NC(=O)[C@@H](NC(=O)[C@@H](NC(=O)[C@@H](CCCNC(=N)N)NC(=O)[C@@H](NC(=O)[C@@H](NC(=O)[C@@H](CCCNC(=N)N)NC(=O)[C@@H](NC(=O)[C@@H](NC(=O)[C@@H](CCCNC(=N)N)NC(=O)[C@H](N)CCCNC(=N)N)[C@@H](C)CC)[C@@H](C)CC)[C@@H](C)CC)[C@@H](C)CC)[C@@H](C)CC)[C@@H](C)CC)C(N)=O [HP37, rrIIrIIrIII] (H-[dR][dR]II[dR]II[dR]III-NH2) | – | – | – | – | – | – | – | – | – | MHC (human red blood cells): 250 µg/mL; MHC (human red blood cells; pH 7.4): 250 µg/mL; MIC A. baumannii ATCC19606 (A. baumannii ATCC19606; ATCC19606): 12 µg/mL (≈ 8.37 µM); MIC A. baumannii ATCC19606 (A. baumannii ATCC19606; ATCC19606, pH 7.4): 8 to 16 µg/mL; MIC K. pneumoniae NCTC418 (K. pneumoniae NCTC418; NCTC418): 48 µg/mL (≈ 33.5 µM); MIC K. pneumoniae NCTC418 (K. pneumoniae NCTC418; NCTC418, pH 7.4): 32 to 64 µg/mL; MIC P. aeruginosa PAO1 (P. aeruginosa PAO1; PAO1): 6 µg/mL (≈ 4.18 µM); MIC P. aeruginosa PAO1 (P. aeruginosa PAO1; PAO1, pH 7.4): 4 to 8 µg/mL; MIC S. aureus COL (S. aureus COL MRSA; COL): 12 µg/mL (≈ 8.37 µM); MIC S. aureus COL MRSA (S. aureus COL MRSA; COL, pH 7.4): 8 to 16 µg/mL |
| CC(C)C[C@H](NC(=O)[C@H](CC(C)C)NC(=O)[C@@H](CC(C)C)NC(=O)[C@H](CCCCN)NC(=O)[C@@H](CC(C)C)NC(=O)[C@H](CC(C)C)NC(=O)[C@@H](CCCCN)NC(=O)[C@H](CC(C)C)NC(=O)[C@@H](CC(C)C)NC(=O)[C@H](CCCCN)NC(=O)[C@@H](N)CCCCN)C(N)=O [HP15, KKlLkLlKlLL] | 3% | 32 to 64 µg/mL | 48 µg/mL (≈ 36.3 µM) | 8 µg/mL (≈ 6.05 µM) | >64 µg/mL | 16 µg/mL (≈ 12.1 µM) | 16 µg/mL (≈ 12.1 µM) | >64 µg/mL | – | – |
| CC(C)C[C@H](NC(=O)[C@H](CC(C)C)NC(=O)[C@@H](CCCCN)NC(=O)[C@H](CC(C)C)NC(=O)[C@H](CC(C)C)NC(=O)[C@@H](CCCCN)NC(=O)[C@H](N)CCCCN)C(=O)N[C@@H](CCCCN)C(=O)N[C@@H](CC(C)C)C(=O)N[C@H](CC(C)C)C(=O)N[C@H](CC(C)C)C(N)=O [HP26, kkLLkLLKLll] | 6% | 16 µg/mL (≈ 12.1 µM) | 16 µg/mL (≈ 12.1 µM) | 4 µg/mL (≈ 3.03 µM) | >64 µg/mL | 4 µg/mL (≈ 3.03 µM) | 4 µg/mL (≈ 3.03 µM) | 32 µg/mL (≈ 24.2 µM) | 32 µg/mL (≈ 24.2 µM) | – |
| CC(C)C[C@H](NC(=O)[C@H](CC(C)C)NC(=O)[C@H](CCCCN)NC(=O)[C@H](CC(C)C)NC(=O)[C@H](CC(C)C)NC(=O)[C@@H](CCCCN)NC(=O)[C@H](N)CCCCN)C(=O)N[C@@H](CCCCN)C(=O)N[C@@H](CC(C)C)C(=O)N[C@@H](CC(C)C)C(=O)N[C@H](CC(C)C)C(N)=O [HP7] | – | – | – | – | – | – | – | – | – | MIC E. cloacae (Enterobacter cloacae): 2 µg/mL (≈ 1.51 µM); MIC ZEM-1A (P. aeruginosa ZEM-1A; pH 7.4): 1 µg/mL (≈ 0.757 µM) |
| CC(C)C[C@H](NC(=O)[C@H](CC(C)C)NC(=O)[C@H](CC(C)C)NC(=O)[C@H](CCCCN)NC(=O)[C@H](CC(C)C)NC(=O)[C@H](CC(C)C)NC(=O)[C@H](CCCCN)NC(=O)[C@@H](CC(C)C)NC(=O)[C@@H](CC(C)C)NC(=O)[C@@H](CCCCN)NC(=O)[C@@H](N)CCCCN)C(N)=O [HP8, KkllKLLKLLL] | – | – | – | – | – | – | – | – | – | MIC P. aeruginosa ZEM-1A (P. aeruginosa ZEM-1A): 2 µg/mL (≈ 1.51 µM) |
| H-RRLLRLLRLLL-NH2 [HP32] | – | – | – | – | – | – | – | – | – | MHC (human red blood cells; human red blood cells in PBS pH 7.4, 4 h, room temperature): 15.6 µg/mL; MHC (human red blood cells; supplementary CSV, human red blood cells): 16 µg/mL |
| CC(C)C[C@H](NC(=O)[C@H](CC(C)C)NC(=O)[C@H](CC(C)C)NC(=O)[C@@H](CCCCN)NC(=O)[C@@H](CC(C)C)NC(=O)[C@@H](CC(C)C)NC(=O)[C@@H](CCCCN)NC(=O)[C@@H](CC(C)C)NC(=O)[C@H](CC(C)C)NC(=O)[C@H](CCCCN)NC(=O)[C@@H](N)CCCCN)C(N)=O [HP29, KKLlkllkLLL] | 6% | 8 µg/mL (≈ 6.05 µM) | 8 µg/mL (≈ 6.05 µM) | 2 µg/mL (≈ 1.51 µM) | 64 µg/mL (≈ 48.4 µM) | 4 µg/mL (≈ 3.03 µM) | 4 µg/mL (≈ 3.03 µM) | 32 µg/mL (≈ 24.2 µM) | 32 µg/mL (≈ 24.2 µM) | MIC K. pneumoniae NCTC418 (K. pneumoniae NCTC418; [3]): 64 µg/mL (≈ 48.4 µM) |
| H-RRIIRIIRIII-NH2 [HP36] | – | – | – | – | – | – | – | – | – | MHC (human red blood cells): 63 µg/mL; MHC (human red blood cells; pH 7.4): 62.5 µg/mL; MIC A. baumannii ATCC19606 (A. baumannii ATCC19606; ATCC19606): 12 µg/mL; MIC A. baumannii ATCC19606 (A. baumannii ATCC19606; ATCC19606, pH 7.4): 8 to 16 µg/mL; MIC S. aureus COL (S. aureus COL MRSA; COL): 24 µg/mL; MIC S. aureus COL MRSA (S. aureus COL MRSA; COL, pH 7.4): 16 to 32 µg/mL |
| CC(C)C[C@H](NC(=O)[C@H](CCCCN)NC(=O)[C@H](N)CCCCN)C(=O)N[C@@H](CC(C)C)C(=O)N[C@H](CCCCN)C(=O)N[C@H](CC(C)C)C(=O)N[C@H](CC(C)C)C(=O)N[C@@H](CCCCN)C(=O)N[C@@H](CC(C)C)C(=O)N[C@@H](CC(C)C)C(=O)N[C@H](CC(C)C)C(N)=O [HP28, kKLLkllKLLl] | 3% | – | – | 2 to 4 µg/mL | >64 µg/mL | 4 µg/mL (≈ 3.03 µM) | 4 µg/mL (≈ 3.03 µM) | 32 µg/mL (≈ 24.2 µM) | 32 µg/mL (≈ 24.2 µM) | MIC E. coli W3110 (E. coli W3110; [3]): 3 µg/mL (≈ 2.27 µM) |
| CC(C)CC(NC(=O)C(CC(C)C)NC(=O)C(CC(C)C)NC(=O)C(CCCCN)NC(=O)C(CC(C)C)NC(=O)C(CC(C)C)NC(=O)C(CCCCN)NC(=O)C(CC(C)C)NC(=O)C(CC(C)C)NC(=O)C(CCCCN)NC(=O)C(N)CCCCN)C(N)=O (racemic) [sr-ln65] | – | 4 µg/mL (≈ 3.03 µM) | – | 4 µg/mL (≈ 3.03 µM) | 16 to 32 µg/mL | 4 µg/mL (≈ 3.03 µM) | – | 8 µg/mL (≈ 6.05 µM) | – | – |
